From the supplement of paper PMC10307832

Legend:
Assay in all cases: relative viability (nuclei count vs DMSO), 5 days (fraction); higher = more cells survive
A-427 = system: A-427
How it was run: (§1)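 Relative viability is defined as nuclei in treated wells over nuclei in vehicle wells. Duplicate plates were run and medians reported. Lung cancer cell lines in 1536-well plates were dosed by pin tool one day after seeding, with one drug or with a fixed anchor-drug dose plus five library-drug doses (not always all listed) in √10 steps, and nuclei were counted after 5 days.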

CAL-12T = system: CAL-12T
How it was run: as §1

COR-L 105 = system: COR-L 105
How it was run: as §1

EPLC-272H = system: EPLC-272H
How it was run: as §1

HCC-15 = system: HCC-15
How it was run: as §1

HCC-44 = system: HCC-44
How it was run: as §1

LC-2-ad = system: LC-2-ad
How it was run: as §1

LCLC-97TM1 = system: LCLC-97TM1
How it was run: as §1

NCI-H1395 = system: NCI-H1395
How it was run: as §1

NCI-H1734 = system: NCI-H1734
How it was run: as §1

NCI-H1792 = system: NCI-H1792
How it was run: as §1

NCI-H1915 = system: NCI-H1915
How it was run: as §1

NCI-H1975 = system: NCI-H1975
How it was run: as §1

NCI-H2023 = system: NCI-H2023
How it was run: as §1

NCI-H2342 = system: NCI-H2342
How it was run: as §1

NCI-H2347 = system: NCI-H2347
How it was run: as §1

NCI-H2405 = system: NCI-H2405
How it was run: as §1

NCI-H520 = system: NCI-H520
How it was run: as §1

NCI-H838 = system: NCI-H838
How it was run: as §1

SW 1573 = system: SW 1573
How it was run: as §1

SW 900 = system: SW 900
How it was run: as §1

UMC-11 = system: UMC-11
How it was run: as §1

For `CCNC(=O)c1noc(-c2cc(C(C)C)c(O)cc2O)c1-c1ccc(CN2CCOCC2)cc1` [Luminespib] + O=C(c1cc(Cc2n[nH]c(=O)c3ccccc23)ccc1F)N1CCN(C(=O)C2CC2)CC1 [Olaparib] (partner 8 µM), which relative viability (A-427; first compound 0.002 µM) is on record?
The relative viability was 0.782.

And the relative viability (A-427; first compound 0.006325 µM)?
The relative viability was 0.732.

What about the relative viability (A-427; first compound 0.02 µM) of the same compound?
The relative viability was 0.716.

And the relative viability (A-427; first compound 0.06325 µM)?
The relative viability was 0.445.

What about the relative viability (A-427; first compound 0.2 µM) of the same compound?
The relative viability was 0.251.

And the relative viability (CAL-12T; first compound 0.002 µM)?
The relative viability was 0.671.

What about the relative viability (CAL-12T; first compound 0.006325 µM) of the same compound?
Its relative viability is 0.679.

And the relative viability (CAL-12T; first compound 0.02 µM)?
The relative viability was 0.959.

What about the relative viability (CAL-12T; first compound 0.06325 µM) of the same compound?
The relative viability was 0.136.

And the relative viability (CAL-12T; first compound 0.2 µM)?
Its relative viability is 0.182.

What about the relative viability (COR-L 105; first compound 0.002 µM) of the same compound?
Its relative viability is 0.737.

And the relative viability (COR-L 105; first compound 0.006325 µM)?
The relative viability was 0.647.

And the relative viability (COR-L 105; first compound 0.02 µM)?
The relative viability was 0.646.

What about the relative viability (COR-L 105; first compound 0.06325 µM) of the same compound?
The relative viability was 0.256.

What about the relative viability (COR-L 105; first compound 0.2 µM) of the same compound?
Its relative viability is 0.295.

And the relative viability (EPLC-272H; first compound 0.002 µM)?
The relative viability was 0.812.

What about the relative viability (EPLC-272H; first compound 0.006325 µM) of the same compound?
Its relative viability is 0.702.

And the relative viability (EPLC-272H; first compound 0.02 µM)?
The relative viability was 0.709.

And the relative viability (EPLC-272H; first compound 0.06325 µM)?
Its relative viability is 0.0637.

And the relative viability (EPLC-272H; first compound 0.2 µM)?
Its relative viability is 0.082.

And the relative viability (HCC-15; first compound 0.002 µM)?
The relative viability was 0.778.

What about the relative viability (HCC-15; first compound 0.006325 µM) of the same compound?
The relative viability was 0.682.

What about the relative viability (HCC-15; first compound 0.02 µM) of the same compound?
The relative viability was 0.734.

And the relative viability (HCC-15; first compound 0.06325 µM)?
The relative viability was 0.345.

And the relative viability (HCC-15; first compound 0.2 µM)?
Its relative viability is 0.154.

What about the relative viability (HCC-44; first compound 0.002 µM) of the same compound?
Its relative viability is 0.981.

What about the relative viability (HCC-44; first compound 0.006325 µM) of the same compound?
Its relative viability is 0.952.

And the relative viability (HCC-44; first compound 0.02 µM)?
The relative viability was 1.07.

And the relative viability (HCC-44; first compound 0.06325 µM)?
The relative viability was 0.944.

What about the relative viability (HCC-44; first compound 0.2 µM) of the same compound?
Its relative viability is 0.52.

And the relative viability (LC-2-ad; first compound 0.002 µM)?
Its relative viability is 0.704.

What about the relative viability (LC-2-ad; first compound 0.006325 µM) of the same compound?
The relative viability was 0.713.

What about the relative viability (LC-2-ad; first compound 0.02 µM) of the same compound?
Its relative viability is 0.866.

And the relative viability (LC-2-ad; first compound 0.06325 µM)?
The relative viability was 0.48.

And the relative viability (LC-2-ad; first compound 0.2 µM)?
Its relative viability is 0.297.

And the relative viability (LCLC-97TM1; first compound 0.002 µM)?
The relative viability was 0.421.

And the relative viability (LCLC-97TM1; first compound 0.006325 µM)?
Its relative viability is 0.5.

And the relative viability (LCLC-97TM1; first compound 0.06325 µM)?
Its relative viability is 0.401.

And the relative viability (LCLC-97TM1; first compound 0.2 µM)?
The relative viability was 0.257.

And the relative viability (NCI-H1395; first compound 0.002 µM)?
The relative viability was 0.465.

And the relative viability (NCI-H1395; first compound 0.006325 µM)?
Its relative viability is 0.454.

What about the relative viability (NCI-H1395; first compound 0.02 µM) of the same compound?
Its relative viability is 0.427.

What about the relative viability (NCI-H1395; first compound 0.06325 µM) of the same compound?
Its relative viability is 0.403.

And the relative viability (NCI-H1395; first compound 0.2 µM)?
Its relative viability is 0.383.

And the relative viability (NCI-H1734; first compound 0.002 µM)?
Its relative viability is 0.646.

What about the relative viability (NCI-H1734; first compound 0.006325 µM) of the same compound?
Its relative viability is 0.595.

What about the relative viability (NCI-H1734; first compound 0.02 µM) of the same compound?
The relative viability was 0.476.

And the relative viability (NCI-H1734; first compound 0.06325 µM)?
The relative viability was 0.152.

And the relative viability (NCI-H1734; first compound 0.2 µM)?
Its relative viability is 0.13.

What about the relative viability (NCI-H1792; first compound 0.002 µM) of the same compound?
The relative viability was 0.4.

What about the relative viability (NCI-H1792; first compound 0.006325 µM) of the same compound?
Its relative viability is 0.298.

And the relative viability (NCI-H1792; first compound 0.02 µM)?
Its relative viability is 0.271.

What about the relative viability (NCI-H1792; first compound 0.06325 µM) of the same compound?
The relative viability was 0.0723.

And the relative viability (NCI-H1792; first compound 0.2 µM)?
Its relative viability is 0.0503.

What about the relative viability (NCI-H1915; first compound 0.002 µM) of the same compound?
Its relative viability is 0.254.

And the relative viability (NCI-H1915; first compound 0.006325 µM)?
Its relative viability is 0.269.

And the relative viability (NCI-H1915; first compound 0.02 µM)?
The relative viability was 0.306.

What about the relative viability (NCI-H1915; first compound 0.06325 µM) of the same compound?
Its relative viability is 0.148.

And the relative viability (NCI-H1915; first compound 0.2 µM)?
The relative viability was 0.124.

What about the relative viability (NCI-H1975; first compound 0.002 µM) of the same compound?
The relative viability was 0.875.

What about the relative viability (NCI-H1975; first compound 0.006325 µM) of the same compound?
The relative viability was 0.802.

What about the relative viability (NCI-H1975; first compound 0.02 µM) of the same compound?
The relative viability was 0.919.

And the relative viability (NCI-H1975; first compound 0.06325 µM)?
Its relative viability is 0.128.

And the relative viability (NCI-H1975; first compound 0.2 µM)?
Its relative viability is 0.156.

And the relative viability (NCI-H2023; first compound 0.002 µM)?
Its relative viability is 0.459.

And the relative viability (NCI-H2023; first compound 0.006325 µM)?
The relative viability was 0.418.

What about the relative viability (NCI-H2023; first compound 0.02 µM) of the same compound?
The relative viability was 0.219.

And the relative viability (NCI-H2023; first compound 0.06325 µM)?
Its relative viability is 0.056.

What about the relative viability (NCI-H2023; first compound 0.2 µM) of the same compound?
The relative viability was 0.0536.

And the relative viability (NCI-H2342; first compound 0.002 µM)?
Its relative viability is 0.411.

And the relative viability (NCI-H2342; first compound 0.006325 µM)?
Its relative viability is 0.512.

And the relative viability (NCI-H2342; first compound 0.02 µM)?
The relative viability was 0.324.

What about the relative viability (NCI-H2342; first compound 0.06325 µM) of the same compound?
Its relative viability is 0.348.

And the relative viability (NCI-H2342; first compound 0.2 µM)?
The relative viability was 0.238.

And the relative viability (NCI-H2347; first compound 0.002 µM)?
Its relative viability is 0.631.

What about the relative viability (NCI-H2347; first compound 0.006325 µM) of the same compound?
The relative viability was 0.617.

And the relative viability (NCI-H2347; first compound 0.02 µM)?
Its relative viability is 0.7.

What about the relative viability (NCI-H2347; first compound 0.06325 µM) of the same compound?
The relative viability was 0.408.

And the relative viability (NCI-H2347; first compound 0.2 µM)?
Its relative viability is 0.296.

And the relative viability (NCI-H2405; first compound 0.002 µM)?
The relative viability was 0.948.

And the relative viability (NCI-H2405; first compound 0.02 µM)?
The relative viability was 0.813.

And the relative viability (NCI-H2405; first compound 0.06325 µM)?
The relative viability was 0.181.

And the relative viability (NCI-H2405; first compound 0.2 µM)?
The relative viability was 0.182.

What about the relative viability (NCI-H520; first compound 0.002 µM) of the same compound?
Its relative viability is 0.361.

What about the relative viability (NCI-H520; first compound 0.006325 µM) of the same compound?
The relative viability was 0.302.

And the relative viability (NCI-H520; first compound 0.02 µM)?
Its relative viability is 0.227.

And the relative viability (NCI-H520; first compound 0.06325 µM)?
The relative viability was 0.139.

What about the relative viability (NCI-H520; first compound 0.2 µM) of the same compound?
Its relative viability is 0.112.

And the relative viability (NCI-H838; first compound 0.002 µM)?
Its relative viability is 0.772.

What about the relative viability (NCI-H838; first compound 0.006325 µM) of the same compound?
Its relative viability is 0.782.

What about the relative viability (NCI-H838; first compound 0.02 µM) of the same compound?
Its relative viability is 0.723.

What about the relative viability (NCI-H838; first compound 0.06325 µM) of the same compound?
Its relative viability is 0.122.

What about the relative viability (NCI-H838; first compound 0.2 µM) of the same compound?
The relative viability was 0.129.

And the relative viability (SW 1573; first compound 0.002 µM)?
The relative viability was 0.445.

And the relative viability (SW 1573; first compound 0.006325 µM)?
The relative viability was 0.4.

And the relative viability (SW 1573; first compound 0.02 µM)?
Its relative viability is 0.165.

What about the relative viability (SW 1573; first compound 0.06325 µM) of the same compound?
The relative viability was 0.101.

And the relative viability (SW 1573; first compound 0.2 µM)?
Its relative viability is 0.0793.

And the relative viability (SW 900; first compound 0.002 µM)?
The relative viability was 0.688.

What about the relative viability (SW 900; first compound 0.006325 µM) of the same compound?
The relative viability was 0.81.

And the relative viability (SW 900; first compound 0.02 µM)?
Its relative viability is 0.818.

What about the relative viability (SW 900; first compound 0.06325 µM) of the same compound?
The relative viability was 0.163.

What about the relative viability (SW 900; first compound 0.2 µM) of the same compound?
The relative viability was 0.152.

What about the relative viability (UMC-11; first compound 0.002 µM) of the same compound?
The relative viability was 0.391.

What about the relative viability (UMC-11; first compound 0.006325 µM) of the same compound?
The relative viability was 0.403.

What about the relative viability (UMC-11; first compound 0.02 µM) of the same compound?
The relative viability was 0.401.

What about the relative viability (UMC-11; first compound 0.06325 µM) of the same compound?
The relative viability was 0.205.

What about the relative viability (UMC-11; first compound 0.2 µM) of the same compound?
Its relative viability is 0.149.
